pIC50: −log10 of the molar value. Where two headings read alike, the source gives them in different places.
Target: hQC (Homo sapiens, UniProt Q16769)
Test: Inhibitor assay for glutaminyl cyclase activity (fluorometric, H-Gln-βNA / H-Gln-AMC)
Type: biochemical
Procedure, shortened: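 Ki values came from fitting progress curves to a competitive inhibition model; rapid screens used 4 mM inhibitor with substrate at KM. QC activity was read at 30 °C via auxiliary pyroglutamyl aminopeptidase releasing βNA (0.2 mM H-Gln-βNA, 0.2 M Tris pH 8.0, 20 mM EDTA) or AMC (0.05 M Tris pH 8.0, 5 mM EDTA).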

[1] = compound from preparative synthesis, purified, read-out: IC50 hQC

Sequence of hQC (Q16769 29-361): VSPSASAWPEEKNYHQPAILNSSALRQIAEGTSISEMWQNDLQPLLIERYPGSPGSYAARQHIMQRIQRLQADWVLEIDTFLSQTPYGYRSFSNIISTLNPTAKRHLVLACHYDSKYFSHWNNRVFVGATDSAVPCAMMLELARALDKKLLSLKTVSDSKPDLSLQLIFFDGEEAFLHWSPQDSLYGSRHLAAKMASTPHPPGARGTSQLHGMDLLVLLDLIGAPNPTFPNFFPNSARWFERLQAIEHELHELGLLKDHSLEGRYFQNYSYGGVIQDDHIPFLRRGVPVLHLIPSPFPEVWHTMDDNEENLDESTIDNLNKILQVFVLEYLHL

| pIC50 (read-out: IC50) | pIC50 [1] | SMILES |
| --- | --- | --- |
| 5.89 |  | CC1=C(O)C(=O)N(CCCn2ccnc2)C1c1ccc(CO)o1 (stereo not drawn) [Compound 32, 3-Hydroxy-5-(5-hydroxymethyl-furan-2-yl)-1-(3-imidazol-1-yl-propyl)-4-methyl-1,5-dihydro-pyrrol-2-one] |
| 5.66 |  | O=C1C(O)=C(c2cccc(O)c2)C(c2cc(Cl)cc(Cl)c2O)N1CCCn1ccnc1 (stereo not drawn) [Compound 4, 5-(3,5-Dichloro-2-hydroxy-phenyl)-3-hydroxy-4-(3-hydroxy-phenyl)-1-(3-imidazol-1-yl-propyl)-1,5-dihydro-pyrrol-2-one] |
| 6.40 |  | CC1=C(O)C(=O)N(CCCn2ccnc2)C1c1cccc(Cl)c1 (stereo not drawn) [Compound 50, 5-(3-Chloro-phenyl)-3-hydroxy-1-(3-imidazol-1-yl-propyl)-4-methyl-1,5-dihydro-pyrrol-2-one] |
| 5.68 |  | CC(=O)C1=C(O)C(=O)N(c2ccc3[nH]cnc3c2)C1c1cccc(C)n1 (stereo not drawn) [Compound 330, 4-Acetyl-1-(1H-benzoimidazol-5-yl)-3-hydroxy-5-(6-methyl-pyridin-2-yl)-1,5-dihydro-pyrrol-2-one] |
| 6.51 |  | O=C(C1=C(O)C(=O)N(c2ccc3[nH]cnc3c2)C1c1ccc(CO)o1)C1CC1 (stereo not drawn) [Compound 418, 1-(1H-Benzoimidazol-5-yl)-4-cyclopropanecarbonyl-3-hydroxy-5-(5-hydroxymethyl-furan-2-yl)-1,5-dihydro-pyrrol-2-one] |
| 7.40 |  | CCCCCC1=C(O)C(=O)N(CCCn2ccnc2)C1c1ccc2[nH]ccc2c1 (stereo not drawn) [Compound 192, 3-Hydroxy-1-(3-imidazol-1-yl-propyl)-5-(1H-indol-5-yl)-4-pentyl-1,5-dihydro-pyrrol-2-one] |
| 5.06 |  | O=C(O)CC1=C(O)C(=O)N(c2ccc3[nH]cnc3c2)C1c1cccc2cccnc12 (stereo not drawn) [Compound 354, [1-(1H-Benzoimidazol-5-yl)-4-hydroxy-5-oxo-2-quinolin-8-yl-2,5-dihydro-1H-pyrrol-3-yl]-acetic acid] |
| 7.40 |  | CCCCCC1=C(O)C(=O)N(CCCn2ccnc2)C1c1ccncc1 (stereo not drawn) [Compound 209, 3-Hydroxy-1-(3-imidazol-1-yl-propyl)-4-pentyl-5-pyridin-4-yl-1,5-dihydro-pyrrol-2-one] |
| 5.11 |  | CCCC(=O)C1=C(O)C(=O)N(c2ccc3[nH]cnc3c2)C1c1c[nH]cn1 (stereo not drawn) [Compound 359, 1-(1H-Benzoimidazol-5-yl)-4-butyryl-3-hydroxy-5-(1H-imidazol-4-yl)-1,5-dihydro-pyrrol-2-one] |
| 5.09 |  | CC(C)C1=C(O)C(=O)N(c2ccc3[nH]cnc3c2)C1c1c(F)ccc(Cl)c1F (stereo not drawn) [Compound 365, 1-(1H-Benzoimidazol-5-yl)-5-(3-chloro-2,6-difluoro-phenyl)-3-hydroxy-4-isopropyl-1,5-dihydro-pyrrol-2-one] |
| 7.40 |  | O=C1C(O)=C(c2ccc(O)cc2)C(c2ccc(O)cc2)N1CCCn1ccnc1 (stereo not drawn) [Compound 181, 3-Hydroxy-4,5-bis-(4-hydroxy-phenyl)-1-(3-imidazol-1-yl-propyl)-1,5-dihydro-pyrrol-2-one] |
| 7.40 | 6.46 | O=C1C(O)=C(c2ccc(O)cc2)C(c2ccccc2F)N1CCCn1ccnc1 (stereo not drawn) [Compound 180, 5-(2-Fluoro-phenyl)-3-hydroxy-4-(4-hydroxy-phenyl)-1-(3-imidazol-1-yl-propyl)-1,5-dihydro-pyrrol-2-one] |
| 5.55 |  | Cc1cc(C2C(c3cccc(O)c3)=C(O)C(=O)N2c2ccc3[nH]cnc3c2)oc1C (stereo not drawn) [Compound 307, 1-(1H-Benzoimidazol-5-yl)-5-(4,5-dimethyl-furan-2-yl)-3-hydroxy-4-(3-hydroxy-phenyl)-1,5-dihydro-pyrrol-2-one] |
| 5.47 |  | CC1=C(O)C(=O)N(c2ccc3[nH]cnc3c2)C1c1ccc(O)cc1O (stereo not drawn) [Compound 265, 1-(1H-Benzoimidazol-5-yl)-5-(2,4-dihydroxy-phenyl)-3-hydroxy-4-methyl-1,5-dihydro-pyrrol-2-one] |
| 6.40 |  | CCCCCC1C(C)=C(O)C(=O)N1CCCn1ccnc1 (stereo not drawn) [Compound 30, 3-Hydroxy-1-(3-imidazol-1-yl-propyl)-4-methyl-5-pentyl-1,5-dihydro-pyrrol-2-one] |
| 7.40 |  | CCCCCC1C(c2ccccc2)=C(O)C(=O)N1CCCn1ccnc1 (stereo not drawn) [Compound 89, 3-Hydroxy-1-(3-imidazol-1-yl-propyl)-5-pentyl-4-phenyl-1,5-dihydro-pyrrol-2-one] |
| 5.24 |  | CC1=C(O)C(=O)N(CCCn2ccnc2)C1/C=C/C(C)C (stereo not drawn) [Compound 24, 3-Hydroxy-1-(3-imidazol-1-yl-propyl)-4-methyl-5-(3-methyl-but-1-enyl)-1,5-dihydro-pyrrol-2-one] |
| 5.89 |  | O=C1C(O)=C(c2cccc(O)c2)C(C2CC2)N1CCCn1ccnc1 (stereo not drawn) [Compound 19, 5-Cyclopropyl-3-hydroxy-4-(3-hydroxy-phenyl)-1-(3-imidazol-1-yl-propyl)-1,5-dihydro-pyrrol-2-one] |
| 5.23 |  | O=C1C(O)=C(c2c[nH]c3ccccc23)C(c2cccc3cccnc23)N1c1ccc2[nH]cnc2c1 (stereo not drawn) [Compound 281, 1-(1H-Benzoimidazol-5-yl)-3-hydroxy-4-(1H-indol-3-yl)-5-quinolin-8-yl-1,5-dihydro-pyrrol-2-one] |
| 5.68 |  | CCC1=C(O)C(=O)N(c2ccc3[nH]cnc3c2)C1c1ccc2nonc2c1 (stereo not drawn) [Compound 431, 1-(1H-Benzoimidazol-5-yl)-5-(benzo[c][1,2,5]oxadiazol-5-yl)-4-ethyl-3-hydroxy-1,5-dihydro-pyrrol-2-one] |
| 6.40 |  | CCC1=C(O)C(=O)N(CCCn2ccnc2)C1c1ccc(C)c(C)c1 (stereo not drawn) [Compound 231, 5-(3,4-Dimethyl-phenyl)-4-ethyl-3-hydroxy-1-(3-imidazol-1-yl-propyl)-1,5-dihydro-pyrrol-2-one] |
| 5.31 |  | CCCCCC1C(F)=C(O)C(=O)N1CCCn1ccnc1 (stereo not drawn) [Compound 2, 4-Fluoro-3-hydroxy-1-(3-imidazol-1-yl-propyl)-5-pentyl-1,5-dihydro-pyrrol-2-one] |
| 5.07 |  | CC1C(F)=C(O)C(=O)N1CCCn1ccnc1 (stereo not drawn) [Compound 3, 4-Fluoro-3-hydroxy-1-(3-imidazol-1-yl-propyl)-5-methyl-1,5-dihydro-pyrrol-2-one] |
| 5.01 |  | O=C1C(O)=C(c2cccc(O)c2)C(c2cc[nH]n2)N1c1ccc2[nH]cnc2c1 (stereo not drawn) [Compound 464, 1-(1H-Benzoimidazol-5-yl)-3-hydroxy-4-(3-hydroxy-phenyl)-5-(1H-pyrazol-3-yl)-1,5-dihydro-pyrrol-2-one] |
| 5.33 |  | O=C1C(O)=C(c2c[nH]c3ccccc23)C(c2coc3ccccc3c2=O)N1c1ccc2[nH]cnc2c1 (stereo not drawn) [Compound 357, 1-(1H-Benzoimidazol-5-yl)-3-hydroxy-4-(1H-indol-3-yl)-5-(4-oxo-4H-chromen-3-yl)-1,5-dihydro-pyrrol-2-one] |
| 5.76 |  | CC(=O)C1=C(O)C(=O)N(c2ccc3[nH]cnc3c2)C1c1ccnc2ccccc12 (stereo not drawn) [Compound 318, 4-Acetyl-1-(1H-benzoimidazol-5-yl)-3-hydroxy-5-quinolin-4-yl-1,5-dihydro-pyrrol-2-one] |
| 5.29 |  | O=C(C1=C(O)C(=O)N(c2ccc3[nH]cnc3c2)C1c1ccc[nH]1)C1CCCCC1 (stereo not drawn) [Compound 452, 1-(1H-Benzoimidazol-5-yl)-3-cyclohexanecarbonyl-4-hydroxy-1,2-dihydro-1′H-[2,2′]bipyrrolyl-5-one] |
| 7.40 | 5.72 | Cc1ccc(C2C(c3ccccc3)=C(O)C(=O)N2CCCn2ccnc2)cc1 (stereo not drawn) [Compound 77, 3-Hydroxy-1-(3-imidazol-1-yl-propyl)-4-phenyl-5-p-tolyl-1,5-dihydro-pyrrol-2-one] |

From US8278345B2, “Inhibitors of glutaminyl cyclase” (Probiodrug AG, priority 2006, dated 2012)
